Here are results for 17 compounds from PubChem BioAssay AID1259408 (Genetic Toxicology Data Bank (GENE-TOX), 2018).

Active and inactive are the calls of the source. The rule behind the calls is not given here.

This data set has as its system GENE-TOX genotoxicity assays, various organisms and cells. The data set can be described thus: GENE-TOX mutagenicity studies. The note with it: for call: Assay Type: In vivo carcinogenicity studies.
[1] abbreviates: Species/Cell Type: Chinese hamster lung (V79) cells, Assay Type: Forward gene mutation at the HPRT or ouabain locus, Assay Code: V79+, Evaluation Type: Evaluation A (Pre-1980).
The mark [2] stands for this setting: Species/Cell Type: Nonhuman, Assay Code: CCG+, Evaluation Type: Evaluation A (Pre-1980).
Setting [3] is: Species/Cell Type: Nonhuman, Assay Type: Sister-chromatid exchange (SCE) in vitro, Assay Code: SC2+D, Dose Response: With dose response, Evaluation Type: Evaluation B (Post-1980).
Where [4] appears, read: Species/Cell Type: Salmonella typhimurium (one or more of the five standard strains: TA98, TA100, TA1535, TA1537, and TA1538), Assay Type: Histidine reverse gene mutation, Ames assay, Assay Code: SAL+*, Activation: With metabolic activation, Evaluation Type: Evaluation A (Pre-1980).
Setting [5] is: Species/Cell Type: Mammalian polychromatic erythrocytes, Assay Type: Micronucleus test, chromosome aberrations, Assay Code: MNT-, Evaluation Type: Evaluation B (Post-1980).
Where [6] appears, read: Species/Cell Type: Chinese hamster ovary (CHO) cells, Assay Type: Forward gene mutation at the HPRT locus, Assay Code: CHO+, Evaluation Type: Evaluation B (Post-1980).
Where [7] appears, read: Species/Cell Type: Human lymphocytes, Assay Type: Sister-chromatid exchange (SCE) in vitro, Assay Code: SCLT, Evaluation Type: Evaluation B (Post-1980).
Where [8] appears, read: Species/Cell Type: Human, Assay Type: Sister-chromatid exchange (SCE) in vitro, Assay Code: SC1T, Evaluation Type: Evaluation B (Post-1980).

Consider `CCCCN(CCCC)N=O`, for which the mutagenic call was “active; positive” under setting [1]; “active; positive” (Species/Cell Type: Chinese hamster ovary (CHO) cells, Assay Type: Forward gene mutation at the HPRT locus, Assay Code: CHO+*, Activation: With metabolic activation, Evaluation Type: Evaluation B (Post-1980)); “no conclusion” (Species/Cell Type: Human diploid fibroblasts, Assay Type: Unscheduled DNA synthesis (UDS) in vitro, DNA effects, Assay Code: UDHT, Evaluation Type: Evaluation A (Pre-1980)); “no conclusion” (Species/Cell Type: Mammalian polychromatic erythrocytes, Assay Type: Micronucleus test, chromosome aberrations, Assay Code: MNTT, Evaluation Type: Evaluation A (Pre-1980)); “inactive; negative” (Species/Cell Type: Mouse, Sex: Male, Assay Type: Sperm morphology, Assay Code: SPI-, Evaluation Type: Evaluation A (Pre-1980)); “inactive; negative” (Species/Cell Type: Nonhuman, Assay Type: Chromosome aberrations in vitro, Assay Code: CY&-, Evaluation Type: Evaluation A (Pre-1980)). Further, the mutagenic call under setting [3] is “active; positive”; the mutagenic call (Species/Cell Type: Nonhuman, Assay Type: Sister-chromatid exchange (SCE) in vitro, Assay Code: SC2T, Evaluation Type: Evaluation A (Pre-1980)) is listed as “no conclusion”; the mutagenic call (Species/Cell Type: Nonhuman, Assay Type: Sister-chromatid exchange (SCE) in vivo, Assay Code: SC3+, Evaluation Type: Evaluation B (Post-1980)) is “active; positive”; the mutagenic call under setting [4] was “active; positive”. The call under setting [2] was “active; positive”.

For `OCC1COCO1` (stereo not given), the mutagenic call under setting [5] was “inactive; negative”.

As to `COc1nc2c(c(=O)n(C)c(=O)n2C)n1C`, the mutagenic call by setting is: (Species/Cell Type: Allium cepa, Assay Type: Chromosome aberrations, Assay Code: ALC+D, Dose Response: With dose response, Evaluation Type: Evaluation A (Pre-1980)) “active; positive”; (Species/Cell Type: Vicia faba, Assay Type: Chromosome aberrations, Assay Code: VIC+, Evaluation Type: Evaluation A (Pre-1980)) “active; positive”.

Regarding `O=c1[nH]c(=O)n([C@H]2C[C@H](O)[C@@H](CO)O2)cc1Br`, the mutagenic call runs as follows: (Species/Cell Type: Arabidopsis species, Assay Type: Gene mutation, Assay Code: ARMT, Evaluation Type: Evaluation A (Pre-1980)) “no conclusion”; under setting [1], “active; positive”; under setting [6], “active; positive”; (Species/Cell Type: Drosophila melanogaster, Assay Type: Sex-linked recessive lethal gene mutation, Assay Code: SRL+, Evaluation Type: Evaluation A (Pre-1980)) “active; positive”; (Species/Cell Type: Drosophila melanogaster, Sex: Male, Assay Type: Heritable translocation test, chromosome aberrations, Assay Code: DHTT, Evaluation Type: Evaluation A (Pre-1980)) “no conclusion”; (Species/Cell Type: Escherichia coli polA (W3119 vs P3478), Assay Type: Rec-assay, DNA effects (bacterial DNA repair), Assay Code: RE1T, Evaluation Type: Evaluation A (Pre-1980)) “no conclusion”. Moreover, the mutagenic call reads like this: (Species/Cell Type: Human diploid fibroblasts, Assay Type: Unscheduled DNA synthesis (UDS) in vitro, DNA effects, Assay Code: UDH-, Evaluation Type: Evaluation A (Pre-1980)) “inactive; negative”; (Species/Cell Type: Human embryo lung fibroblasts (WI-38 cells), Assay Type: Sister-chromatid exchange (SCE) in vitro, Assay Code: SCW+D, Dose Response: With dose response, Evaluation Type: Evaluation A (Pre-1980)) “active; positive”; (Species/Cell Type: Human embryo lung fibroblasts (WI-38 cells), Assay Type: Sister-chromatid exchange (SCE) in vitro, Assay Code: SCW+D, Dose Response: With dose response, Evaluation Type: Evaluation B (Post-1980)) “active; positive”; (Species/Cell Type: Human lymphocytes, Assay Type: Micronucleus test in vitro, chromosome aberrations, Assay Code: MN7+, Evaluation Type: Evaluation A (Pre-1980)) “active; positive”; (Species/Cell Type: Human lymphocytes, Assay Type: Sister-chromatid exchange (SCE) in vitro, Assay Code: SCL+D, Dose Response: With dose response, Evaluation Type: Evaluation A (Pre-1980)) “active; positive”; under setting [7], “no conclusion”. Further, the mutagenic call is, setting by setting: (Species/Cell Type: Human, Assay Type: Sister-chromatid exchange (SCE) in vitro, Assay Code: SC1+D, Dose Response: With dose response, Evaluation Type: Evaluation A (Pre-1980)) “active; positive”; under setting [8], “no conclusion”; (Species/Cell Type: Mammalian polychromatic erythrocytes, Assay Type: Micronucleus test, chromosome aberrations, Assay Code: MNT+, Evaluation Type: Evaluation A (Pre-1980)) “active; positive”; (Species/Cell Type: Mouse (C3H/10T1/2) cells, Assay Type: Cell transformation, Assay Code: CTH-, Evaluation Type: Evaluation A (Pre-1980)) “inactive; negative”; (Species/Cell Type: Mouse, Sex: Male, Assay Type: Sperm morphology, Assay Code: SPI+, Evaluation Type: Evaluation A (Pre-1980)) “active; positive”; (Species/Cell Type: Nonhuman, Assay Type: Sister-chromatid exchange (SCE) in vitro, Assay Code: SC2+D, Dose Response: With dose response, Evaluation Type: Evaluation A (Pre-1980)) “active; positive”. In addition, the mutagenic call was “active; positive” under setting [3]; “active; positive” (Species/Cell Type: Nonhuman, Assay Type: Sister-chromatid exchange (SCE) in vivo, Assay Code: SC3+D, Dose Response: With dose response, Evaluation Type: Evaluation A (Pre-1980)); “active; positive” (Species/Cell Type: Nonhuman, Assay Type: Sister-chromatid exchange (SCE) in vivo, Assay Code: SC3+D, Dose Response: With dose response, Evaluation Type: Evaluation B (Post-1980)); “inactive; negative” (Species/Cell Type: Saccharomyces cerevisiae, Assay Type: Mitotic recombination or gene conversion, Assay Code: YEH-, Evaluation Type: Evaluation A (Pre-1980)); “active; positive” (Species/Cell Type: Syrian hamster embryo (SA7/SHE) cells, Assay Type: Cell transformation, viral enhanced, Assay Code: CT7+, Evaluation Type: Evaluation A (Pre-1980)); “no conclusion” (Species/Cell Type: Syrian hamster embryo (SHE) cells, Assay Type: Cell transformation, clonal assay, Assay Code: CTCT, Evaluation Type: Evaluation A (Pre-1980)). In addition, the call (Species/Cell Type: Nonhuman, Assay Code: CCGT, Evaluation Type: Evaluation A (Pre-1980)) is “no conclusion”.

For `CC(=O)OCC[C@H](C=O)c1c(O)cc2c(c1O)C(=O)c1c(O)cc(O)cc1C2=O`, the mutagenic call under setting [4] is “active; positive”.

As to `OC1c2cccc3ccc4cc5ccccc5c(c4c23)C1O` (stereo not given), the mutagenic call (Species/Cell Type: Chinese hamster lung (V79) cells, Assay Type: Forward gene mutation at the HPRT or ouabain locus, Assay Code: V79-, Evaluation Type: Evaluation A (Pre-1980)) was “inactive; negative”.

As to `CCCCCCCCCCCCN(C)N=O`, the mutagenic call under setting [4] was “active; positive”.

On to `NC(=O)N(CCC[C@H](N)C(=O)O)N=O`, for which the mutagenic call (Species/Cell Type: Salmonella typhimurium (one or more of the five standard strains: TA98, TA100, TA1535, TA1537, and TA1538), Assay Type: Histidine reverse gene mutation, Ames assay, Assay Code: SAL+, Evaluation Type: Evaluation A (Pre-1980)) was “active; positive”.

`CN(CCO)c1nc(Nc2ccccc2)nc(Nc2ccc(/C=C/c3ccc(Nc4nc(Nc5ccccc5)nc(N(C)CCO)n4)cc3S(=O)(=O)O)c(S(=O)(=O)O)c2)n1`: the mutagenic call by setting is: (Species/Cell Type: Rodents, Sex: Male, Assay Type: Dominant lethal test, Assay Code: DLT-, Evaluation Type: Evaluation A (Pre-1980)) “inactive; negative”; (Species/Cell Type: Salmonella typhimurium (one or more of the five standard strains: TA98, TA100, TA1535, TA1537, and TA1538), Assay Type: Histidine reverse gene mutation, Ames assay, Assay Code: SALT, Evaluation Type: Evaluation A (Pre-1980)) “no conclusion”.

Consider `O=C1c2c(O)cccc2Cc2cccc(O)c21`, for which the mutagenic call under setting [5] was “inactive; negative” and the mutagenic call (Species/Cell Type: Saccharomyces cerevisiae, Assay Type: Mitotic recombination or gene conversion, Assay Code: YECT, Evaluation Type: Evaluation A (Pre-1980)) is listed as “no conclusion”.

Regarding `Cc1occc(=O)c1O`, the mutagenic call (Species/Cell Type: Human lymphocytes, Assay Type: Sister-chromatid exchange (SCE) in vitro, Assay Code: SCL+D, Dose Response: With dose response, Evaluation Type: Evaluation B (Post-1980)) was “active; positive” and the mutagenic call (Species/Cell Type: Human, Assay Type: Sister-chromatid exchange (SCE) in vitro, Assay Code: SC1+D, Dose Response: With dose response, Evaluation Type: Evaluation B (Post-1980)) was “active; positive”.

As for `O=C[C@H](O)[C@@H](O)[C@H](O[C@@H]1O[C@H](CO)[C@H](O)[C@H](O)[C@H]1O)[C@H](O)CO`, the mutagenic call reads like this: under setting [7], “no conclusion”; under setting [8], “no conclusion”; (Species/Cell Type: Nonhuman, Assay Type: Sister-chromatid exchange (SCE) in vivo, Assay Code: SC3T, Evaluation Type: Evaluation B (Post-1980)) “no conclusion”.

For `O=c1[nH]c(=O)n([C@H]2C[C@H](O)[C@@H](CO)O2)cc1Cl`, the mutagenic call was “active; positive” under setting [6] and “active; positive” under setting [3].

In the case of `C[C@H]1CCCCN1N=O`, the call under setting [2] was “active; positive”.

With `CCCCc1ccc(C(=O)O)nc1`, the mutagenic call (Species/Cell Type: Bacillus subtilis (H17 vs M45), Assay Type: Rec-assay, spot test, DNA effects (bacterial DNA repair), Assay Code: REW-, Evaluation Type: Evaluation A (Pre-1980)) is “inactive; negative”.

Regarding `Nc1ccc(Nc2ccccc2)cc1`, where the note is “Species/Cell Type: Neurospora crassa, Assay Type: Aneuploidy, chromosome aberrations, Assay Code: NEN-, Evaluation Type: Evaluation A (Pre-1980)”, the mutagenic call was “inactive; negative”. For the same compound, the call (Species/Cell Type: Nonhuman, Assay Code: CCG-L, Evaluation Type: Evaluation A (Pre-1980)) is “inactive; negative”.

For `[Cd]`, under “Species/Cell Type: Human lymphocytes or leukocytes, Assay Type: Chromosome aberrations in vivo, Assay Code: CY8T, Evaluation Type: Evaluation A (Pre-1980)”, the mutagenic call is recorded as “no conclusion”. The call (Species/Cell Type: Nonhuman, Assay Code: CCG+L, Evaluation Type: Evaluation A (Pre-1980)) was “active; positive”.
